Molecular target: integrin αvβ3 (Homo sapiens, UniProt P05106+P06756)
Experiment: Whole-cell integrin αvβ3 competitive displacement assay against ^125I-c
Assay type: binding

In the case of `N=C(N)NCCC[C@@H]1NC(=O)[C@H](CCCCNC(=O)CCOCCOCCOCCOCCNC(=O)CN2CCN(CC(=O)O)CCN(CC(=O)O)CCN(CC(=O)O)CC2)NC(=O)[C@@H](Cc2ccccc2)NC(=O)[C@H](CC(=O)O)NC(=O)CNC1=O` [DOTA-P-RGD, DOTA-PEG4-c(RGDfK)], the IC50 is reported as 0.0443 ± 0.0035 µM.

From article PMC3157017 (Theranostics, 2011)
